Test results reported in ChEMBL document CHEMBL5131481, “Topoisomerase IIα inhibitory and antiproliferative activity of dihydroxylated 2,6-diphenyl-4-fluorophenylpyridines: Design, synthesis, and structure-activity relationships” (Bioorg Med Chem Lett, 2022).
pIC50: −log10 of the molar value. Where a name gives a salt, the structure may show the parent alone.

Tests used:
[1] = test system: HCT-15; assay: Antiproliferative activity against human HCT-15 cells assessed as inhibition of cell proliferation; assay type: functional, cell-based
[2] = test system: T47D; assay: Antiproliferative activity against human T47D cells assessed as inhibition of cell proliferation; assay type: functional, cell-based
[3] = test system: HeLa; assay: Antiproliferative activity against human HeLa cells assessed as inhibition of cell proliferation; assay type: functional, cell-based
[4] = test system: DU-145; assay: Antiproliferative activity against human DU-145 cells assessed as inhibition of cell proliferation; assay type: functional, cell-based
[5] = molecular target: DNA topoisomerase 2-alpha (Homo sapiens) (UniProt P11388); assay: Inhibition of topoisomerase 2alpha (unknown origin) assessed as relaxation of supercoiled plasmid pBR322 DNA at 100 uM relative to control
Sequence of DNA topoisomerase 2-alpha (Homo sapiens) (P11388 whole entry): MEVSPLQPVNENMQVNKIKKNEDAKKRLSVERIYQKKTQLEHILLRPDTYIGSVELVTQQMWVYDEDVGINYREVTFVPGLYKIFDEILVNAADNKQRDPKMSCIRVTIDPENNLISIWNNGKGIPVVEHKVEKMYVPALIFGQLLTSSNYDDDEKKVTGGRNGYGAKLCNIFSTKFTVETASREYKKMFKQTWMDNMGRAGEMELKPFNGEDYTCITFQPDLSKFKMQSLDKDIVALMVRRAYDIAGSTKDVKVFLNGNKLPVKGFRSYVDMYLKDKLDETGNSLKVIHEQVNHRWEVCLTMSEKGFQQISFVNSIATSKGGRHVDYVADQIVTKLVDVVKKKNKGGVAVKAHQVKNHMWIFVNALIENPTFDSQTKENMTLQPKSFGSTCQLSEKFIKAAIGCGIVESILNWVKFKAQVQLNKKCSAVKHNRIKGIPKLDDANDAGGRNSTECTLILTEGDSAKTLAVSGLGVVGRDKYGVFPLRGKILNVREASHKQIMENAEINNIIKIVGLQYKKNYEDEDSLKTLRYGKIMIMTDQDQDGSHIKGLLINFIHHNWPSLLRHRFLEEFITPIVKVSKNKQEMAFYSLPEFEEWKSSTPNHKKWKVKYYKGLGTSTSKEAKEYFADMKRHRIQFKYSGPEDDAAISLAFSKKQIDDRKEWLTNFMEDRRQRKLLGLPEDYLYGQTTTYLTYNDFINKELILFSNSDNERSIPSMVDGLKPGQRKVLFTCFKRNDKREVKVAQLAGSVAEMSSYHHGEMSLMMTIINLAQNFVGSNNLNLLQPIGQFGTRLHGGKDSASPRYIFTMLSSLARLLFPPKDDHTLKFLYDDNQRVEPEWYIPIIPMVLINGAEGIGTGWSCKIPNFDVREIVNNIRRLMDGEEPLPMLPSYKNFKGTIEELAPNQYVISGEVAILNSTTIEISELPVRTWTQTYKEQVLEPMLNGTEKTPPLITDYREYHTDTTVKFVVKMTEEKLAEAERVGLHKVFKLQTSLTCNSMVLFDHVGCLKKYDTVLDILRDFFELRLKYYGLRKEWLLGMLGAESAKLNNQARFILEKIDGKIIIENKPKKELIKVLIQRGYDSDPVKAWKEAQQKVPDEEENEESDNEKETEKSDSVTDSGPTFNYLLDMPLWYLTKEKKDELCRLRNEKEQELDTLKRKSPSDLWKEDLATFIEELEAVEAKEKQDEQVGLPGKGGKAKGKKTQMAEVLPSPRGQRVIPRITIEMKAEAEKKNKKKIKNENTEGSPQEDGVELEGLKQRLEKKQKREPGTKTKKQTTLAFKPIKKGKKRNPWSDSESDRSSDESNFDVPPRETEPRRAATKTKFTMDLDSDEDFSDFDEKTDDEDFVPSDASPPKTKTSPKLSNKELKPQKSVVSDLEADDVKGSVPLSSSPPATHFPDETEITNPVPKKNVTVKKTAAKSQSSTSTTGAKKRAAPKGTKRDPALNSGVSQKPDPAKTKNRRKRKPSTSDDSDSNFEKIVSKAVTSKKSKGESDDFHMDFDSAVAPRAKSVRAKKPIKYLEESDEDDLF

[6] = molecular target: DNA topoisomerase 2-alpha (Homo sapiens) (UniProt P11388); assay: Inhibition of topoisomerase 2alpha (unknown origin) assessed as relaxation of supercoiled plasmid pBR322 DNA at 20 uM relative to control

Compound	pIC50 [1]	pIC50 [2]	pIC50 [3]	pIC50 [4]	inhibition [5]	inhibition [6]
Oc1cccc(-c2cc(-c3cccc(OC(F)(F)F)c3)cc(-c3cccc(O)c3)n2)c1	< 4.30	5.17	< 4.30	< 4.30	5.7%	–
COc1cc([C@@H]2c3cc4c(cc3[C@@H](O[C@@H]3O[C@@H]5CO[C@@H](C)O[C@H]5[C@H](O)[C@H]3O)[C@H]3COC(=O)[C@H]23)OCO4)cc(OC)c1O [ETOPOSIDE]	–	5.24	5.15	5.13	–	21.2%
Oc1ccccc1-c1cc(-c2cccc(OC(F)(F)F)c2)cc(-c2ccccc2O)n1	< 4.30	< 4.30	< 4.30	5.13	14.8%	–
Oc1ccc(-c2cc(-c3ccc(F)cc3)cc(-c3ccc(O)cc3)n2)cc1	5.30	5.28	5.06	5.22	97.1%	42.5%
Oc1cccc(-c2cc(-c3ccccc3F)cc(-c3ccccc3O)n2)c1	5.07	4.62	4.51	4.45	1%	–
Oc1cccc(-c2cc(-c3ccccc3OC(F)(F)F)cc(-c3cccc(O)c3)n2)c1	5.37	5.10	4.78	5.27	33.4%	6.7%
Oc1ccccc1-c1cc(-c2ccccc2OC(F)(F)F)cc(-c2ccccc2O)n1	5.34	5.76	5.01	5.23	12.5%	–
Oc1ccccc1-c1cc(-c2cccc(F)c2)cc(-c2ccccc2O)n1	< 4.30	< 4.30	< 4.30	< 4.30	0%	–
Oc1ccc(-c2cc(-c3ccccc3F)cc(-c3ccc(O)cc3)n2)cc1	5.09	4.82	< 4.30	5.11	0%	–
Oc1cccc(-c2cc(-c3ccc(OC(F)(F)F)cc3)cc(-c3cccc(O)c3)n2)c1	< 4.30	5.01	4.73	< 4.30	6%	–
Oc1cccc(-c2cc(-c3ccc(F)cc3)cc(-c3cccc(O)c3)n2)c1	5.20	5.16	5.89	5.15	36.6%	4.9%
Oc1cccc(-c2cc(-c3ccccc3C(F)(F)F)cc(-c3cccc(O)c3)n2)c1	5.09	5.36	4.82	5.54	34%	–
Oc1cccc(-c2cc(-c3ccccc3OC(F)(F)F)cc(-c3ccccc3O)n2)c1	5.49	5.57	4.82	< 4.30	0%	–
COc1cccc2c1C(=O)c1c(O)c3c(c(O)c1C2=O)C[C@@](O)(C(=O)CO)C[C@@H]3O[C@H]1C[C@H](N)[C@H](O)[C@H](C)O1 [DOXORUBICIN HYDROCHLORIDE]	5.89	5.34	5.30	5.23	–	–
Oc1ccc(-c2cc(-c3ccc(C(F)(F)F)cc3)cc(-c3ccc(O)cc3)n2)cc1	< 4.30	< 4.30	< 4.30	< 4.30	0.2%	–
Oc1ccccc1-c1cc(-c2ccc(F)cc2)cc(-c2ccccc2O)n1	< 4.30	< 4.30	< 4.30	< 4.30	7.2%	–
Oc1ccc(-c2cc(-c3cccc(F)c3)cc(-c3ccc(O)cc3)n2)cc1	< 4.30	< 4.30	< 4.30	5.03	0%	–
Oc1ccc(-c2cc(-c3cccc(OC(F)(F)F)c3)cc(-c3ccc(O)cc3)n2)cc1	< 4.30	< 4.30	< 4.30	< 4.30	4.4%	–
Oc1ccccc1-c1cc(-c2ccccc2C(F)(F)F)cc(-c2ccccc2O)n1	5.40	4.65	5.24	5.32	0%	–
Oc1cccc(-c2cc(-c3cccc(F)c3)cc(-c3cccc(O)c3)n2)c1	5.10	4.67	5.85	4.62	4.9%	–
Oc1ccccc1-c1cc(-c2ccccc2F)cc(-c2ccccc2O)n1	< 4.30	< 4.30	< 4.30	< 4.30	10.3%	–
Oc1ccc(-c2cc(-c3ccc(OC(F)(F)F)cc3)cc(-c3cccc(O)c3)n2)cc1	5.86	4.72	4.56	4.74	4.4%	–

Continued, values first:

pIC50 [1]	pIC50 [2]	pIC50 [3]	pIC50 [4]	inhibition [5]	inhibition [6]	Compound
< 4.30	< 4.30	< 4.30	< 4.30	0.1%	–	Oc1ccc(-c2cc(-c3ccc(C(F)(F)F)cc3)cc(-c3ccccc3O)n2)cc1
5.05	5.14	4.78	5.17	0%	–	Oc1ccc(-c2cc(-c3ccccc3C(F)(F)F)cc(-c3ccccc3O)n2)cc1
< 4.30	< 4.30	< 4.30	< 4.30	8.8%	–	Oc1cccc(-c2cc(-c3cccc(F)c3)cc(-c3ccccc3O)n2)c1
5.03	5.11	4.69	4.68	0%	–	Oc1cccc(-c2cc(-c3ccc(OC(F)(F)F)cc3)cc(-c3ccccc3O)n2)c1
5.05	5.25	4.77	5.14	2.6%	–	Oc1cccc(-c2cc(-c3ccccc3C(F)(F)F)cc(-c3ccccc3O)n2)c1
< 4.30	< 4.30	< 4.30	< 4.30	0.2%	–	Oc1ccc(-c2cc(-c3ccccc3F)cc(-c3ccccc3O)n2)cc1
5.02	5.58	4.79	4.96	28%	–	Oc1ccc(-c2cc(-c3cccc(C(F)(F)F)c3)cc(-c3cccc(O)c3)n2)cc1
< 4.30	< 4.30	< 4.30	< 4.30	0%	–	Oc1ccc(-c2cc(-c3ccc(F)cc3)cc(-c3ccccc3O)n2)cc1
< 4.30	< 4.30	< 4.30	< 4.30	0.1%	–	Oc1ccc(-c2cc(-c3cccc(C(F)(F)F)c3)cc(-c3ccccc3O)n2)cc1
< 4.30	< 4.30	< 4.30	< 4.30	0%	–	Oc1ccc(-c2cc(-c3cccc(OC(F)(F)F)c3)cc(-c3ccccc3O)n2)cc1
< 4.30	< 4.30	< 4.30	< 4.30	0%	–	Oc1ccc(-c2cc(-c3ccc(OC(F)(F)F)cc3)cc(-c3ccccc3O)n2)cc1
5.64	5.14	5.24	5.11	45.2%	4.4%	Oc1ccc(-c2cc(-c3ccccc3OC(F)(F)F)cc(-c3cccc(O)c3)n2)cc1
< 4.30	< 4.30	< 4.30	< 4.30	1.2%	–	Oc1ccccc1-c1cc(-c2cccc(C(F)(F)F)c2)cc(-c2ccccc2O)n1
< 4.30	< 4.30	< 4.30	< 4.30	0%	–	Oc1ccccc1-c1cc(-c2ccc(C(F)(F)F)cc2)cc(-c2ccccc2O)n1
< 4.30	< 4.30	< 4.30	< 4.30	1.3%	–	Oc1cccc(-c2cc(-c3ccc(F)cc3)cc(-c3ccccc3O)n2)c1
< 4.30	< 4.30	< 4.30	< 4.30	0%	–	Oc1ccc(-c2cc(-c3cccc(C(F)(F)F)c3)cc(-c3ccc(O)cc3)n2)cc1
5.19	5.20	4.71	4.89	0.6%	–	Oc1cccc(-c2cc(-c3cccc(C(F)(F)F)c3)cc(-c3ccccc3O)n2)c1
< 4.30	< 4.30	< 4.30	4.69	0%	–	Oc1ccccc1-c1cc(-c2ccc(OC(F)(F)F)cc2)cc(-c2ccccc2O)n1
< 4.30	< 4.30	< 4.30	< 4.30	0%	–	Oc1ccc(-c2cc(-c3ccccc3C(F)(F)F)cc(-c3ccc(O)cc3)n2)cc1
< 4.30	5.63	< 4.30	4.48	24%	–	Oc1cccc(-c2cc(-c3ccc(C(F)(F)F)cc3)cc(-c3cccc(O)c3)n2)c1
< 4.30	< 4.30	< 4.30	< 4.30	16.3%	–	Oc1ccc(-c2cc(-c3cccc(F)c3)cc(-c3ccccc3O)n2)cc1
4.87	5.30	4.90	< 4.30	25.2%	–	Oc1cccc(-c2cc(-c3cccc(C(F)(F)F)c3)cc(-c3cccc(O)c3)n2)c1
< 4.30	< 4.30	< 4.30	< 4.30	0.2%	–	Oc1cccc(-c2cc(-c3ccc(C(F)(F)F)cc3)cc(-c3ccccc3O)n2)c1
5.01	5.69	5.22	5.38	0%	–	Oc1ccc(-c2cc(-c3ccccc3OC(F)(F)F)cc(-c3ccccc3O)n2)cc1
5.56	5.27	4.83	< 4.30	0%	–	Oc1cccc(-c2cc(-c3cccc(OC(F)(F)F)c3)cc(-c3ccccc3O)n2)c1
